Results from patent publication US20230203081A1, “LINCOSAMIDE ANTIBIOTICS AND USES THEREOF” (President and Fellows of Harvard College, priority 2020, published 2023).
≈ marks a conversion by molar mass, not a printed value. Read-outs that look alike come from different tables or passages of the source.

Legend:
Format in all cases: cell-based
[1] = system: S. aureus ATCC 29213; test: MIC (broth microdilution or agar dilution, CLSI); details: Staphylococcus aureus, read-out: MIC
Procedure: (§1) Minimum inhibitory concentrations (MICs) were determined by broth microdilution method or agar dilution method following the Clinical and Laboratory Standards Institute guidelines. Standard bacterial strains were obtained from American Type Culture Collection (ATCC). Other bacterial strains were obtained from hospitals and commercial sources, so noted in Table 11. […] Specialized procedures were employed for streptococcal and anaerobic strains. All other bacterial strains were sub-cultured on blood agar plates (tryptic soy agar with 5% sheep blood, Hardy Diagnostics) and incubated overnight at 35° C. […] Suspensions were further diluted to obtain a final inoculum of 5×10^5 CFU/mL for broth microdilution experiments.

[2] = system: E. coli LptD; test: MIC (broth microdilution or agar dilution, CLSI); details: Escherichia coli, read-out: MIC
Procedure: as §1

[3] = system: K. oxytoca Clinical; test: MIC (broth microdilution or agar dilution, CLSI); details: Klebsiella oxytoca, read-out: MIC
Procedure: as §1

[4] = system: S. pneumoniae ATCC 49619; test: MIC (broth microdilution or agar dilution, CLSI); details: Streptococcus pneumoniae, read-out: MIC
Procedure: as §1

[5] = system: E. coli ATCC 25922; test: MIC (broth microdilution or agar dilution, CLSI); details: Escherichia coli, ATCC25922, read-out: MIC
Procedure: as §1

[6] = system: S. pyogenes ATCC 19615; test: MIC (broth microdilution or agar dilution, CLSI); details: Streptococcus pyogenes, read-out: MIC
Procedure: as §1

[7] = system: E. faecalis ATCC 29212; test: MIC (broth microdilution or agar dilution, CLSI); details: Enterococcus faecalis, read-out: MIC
Procedure: as §1

[8] = system: A. baumannii ATCC 19606; test: MIC (broth microdilution or agar dilution, CLSI); details: Acinetobacter baumannii, ATCC19606; A. baumannii ATCC 19606; read-out: MIC
Procedure: as §1

[9] = system: S. aureus cErmA; test: MIC (broth microdilution or agar dilution, CLSI); details: Staphylococcus aureus; S. aureus cErmA; read-out: MIC
Procedure: (§2) Minimum inhibitory concentrations (MICs) were determined by broth microdilution method or agar dilution method following the Clinical and Laboratory Standards Institute guidelines. Standard bacterial strains were obtained from American Type Culture Collection (ATCC). Other bacterial strains were obtained from hospitals and commercial sources, so noted in Table 11. Before the start of the MIC experiment, standard and test compound stock solutions were prepared in dimethyl sulfoxide (DMSO, Aldrich D2650) at a stock concentration of 5,120 μg/mL. The compound concentration range typically employed for each experiment was 128-0.06 μg/mL (2.5% final DMSO concentration). Clindamycin was used as a comparator in all experiments and each experiment was performed in triplicate. Specialized procedures were employed for streptococcal and anaerobic strains. All other bacterial strains were sub-cultured on blood agar plates (tryptic soy agar with 5% sheep blood, Hardy Diagnostics) and incubated overnight at 35° C. Organisms were suspended in cation-adjusted Mueller-Hinton broth (CaMHB, BD 212322) and optical density was adjusted to 0.5 McFarland standard. Suspensions were further diluted to obtain a final inoculum of 5×10^5 CFU/mL for broth microdilution experiments.

[10] = system: E. faecium Clinical VRE; test: MIC (broth microdilution or agar dilution, CLSI); details: Enterococcus faecium; E. faecium Clinical VRE; read-out: MIC
Procedure: as §2

[11] = system: P. aeruginosa ATCC 27853; test: MIC (broth microdilution or agar dilution, CLSI); details: Pseudomonas aeruginosa, ATCC27853; P. aeruginosa ATCC 27853; read-out: MIC
Procedure: as §2

[12] = system: E. coli ΔTolC; test: microbe, parasite or virus in culture; details: Escherichia coli
Procedure: as §1

[13] = system: S. aureus ATCC BAA-1707 (MRSA); test: MIC (broth microdilution or agar dilution, CLSI); details: Staphylococcus aureus; S. aureus HAV#016, ATCC BAA-1707; MRSA; read-out: MIC
Procedure: as §1

[14] = system: S. aureus MMX 3035 cErmA; test: MIC (broth microdilution or agar dilution, CLSI); details: Staphylococcus aureus, MMX3035CERMA; S. aureus HAV#031, MMX 3035; cErmA; read-out: MIC
Procedure: as §1

[15] = system: S. pneumoniae ATCC 6303; test: MIC (broth microdilution or agar dilution, CLSI); details: Streptococcus pneumoniae, ATCC6303; S. pneumoniae HAV#351, ATCC 6303; read-out: MIC
Procedure: as §1

[16] = system: S. pneumoniae MMX 3031 cMefA; test: MIC (broth microdilution or agar dilution, CLSI); details: Streptococcus pneumoniae, MMX3031CMEFA, S. pneumoniae HAV#034; MMX 3031, cMefA; read-out: MIC
Procedure: as §1

[17] = system: E. faecalis MMX 847; cErmB; test: MIC (broth microdilution or agar dilution, CLSI); details: Enterococcus faecalis; E. faecalis HAV#036, MMX 847; mac-resistant, cErmB; read-out: MIC
Procedure: as §1

[18] = system: S. pneumoniae MMX 3028 cErmB; test: MIC (broth microdilution or agar dilution, CLSI); details: Streptococcus pneumoniae, MMX3028CERMB; S. pneumoniae HAV#033; MMX 3028, cErmB; read-out: MIC
Procedure: as §1

[19] = system: S. pyogenes MMX 946; cErmB; test: MIC (broth microdilution or agar dilution, CLSI); details: Streptococcus pyogenes; S. pyogenes HAV#035, MMX 946; cErmB, mac-resistant; read-out: MIC
Procedure: as §1

[20] = system: S. aureus hVISA; test: MIC (broth microdilution or agar dilution, CLSI); details: Staphylococcus aureus; S. aureus HAV#204, hVISA; read-out: MIC
Procedure: as §1

[21] = system: S. aureus BAA 977 iErmA; test: microbe, parasite or virus in culture; details: Staphylococcus aureus, BAA-977 / MRSA
Procedure: as §1

[22] = system: S. aureus MP-549 msrA; test: microbe, parasite or virus in culture; details: Staphylococcus aureus, MP549MSRA; S. aureus HAV#032, MP-549; MSR(A)
Procedure: as §1

[23] = system: broad panel of different clinical isolates; test: microbe, parasite or virus in culture
Procedure: as §1

[24] = ATCC29213, S. aureus ATCC 29213
[25] = ATCC49619, S. pneumoniae ATCC 49619
[26] = ATCC19615, S. pyogenes ATCC 19615
[27] = ATCC29212, E. faecalis ATCC 29212

SMILES: COCCC[C@@H]1CCO[C@@H]2[C@H](CN[C@@H]2C(=O)N[C@H]([C@H](C)Cl)[C@H]2OC(SC)[C@H](O)[C@H](O)C2O)C1 (stereo partly drawn) [FSA-10-10-022]
- MIC [1, 24]: 0.125 µg/mL (≈ 0.245 µM)
- MIC ([2]; E. coli LptD): 4 µg/mL (≈ 7.83 µM)
- MIC ([3]; K. oxytoca Clinical): 32 µg/mL (≈ 62.6 µM)
- MIC [4, 25]: 0.25 µg/mL (≈ 0.489 µM)
- MIC ([5]; E. coli ATCC 25922): 32 µg/mL (≈ 62.6 µM)
- MIC [6, 26]: 0.25 µg/mL (≈ 0.489 µM)
- MIC [7, 27]: 2 µg/mL (≈ 3.91 µM)
- MIC [8]: > 128 µg/mL
- MIC [9]: 16 µg/mL (≈ 31.3 µM)
- MIC [10]: 8 µg/mL (≈ 15.7 µM)
- MIC [11]: > 128 µg/mL
- MIC ([12]; E. coli ΔTolC): 0.5 µg/mL (≈ 0.978 µM)

SMILES: Cc1onc(-c2ccccc2)c1C(=O)N[C@@H]1C(=O)N2[C@@H]1SC(C)(C)[C@@H]2C(=O)O [Oxacillin]
- MIC ([1]; ATCC29213, S. aureus HAV#001, ATCC 29213, MP-549): 0.5 µg/mL (≈ 1.25 µM)
- MIC ([2]; E. coli HAV#040, LptD): 4 µg/mL (≈ 9.96 µM)
- MIC ([3]; K. oxytoca HAV#450, Clinical): > 64 µg/mL
- MIC [13]: > 64 µg/mL
- MIC ([4]; ATCC49619, S. pneumoniae HAV#003, ATCC 49619): 2 µg/mL (≈ 4.98 µM)
- MIC [14]: > 64 µg/mL
- MIC [15]: 0.5 µg/mL (≈ 1.25 µM)
- MIC ([5]; E. coli HAV#006, ATCC 25922): > 64 µg/mL
- MIC [16]: 16 µg/mL (≈ 39.9 µM)
- MIC ([6]; ATCC19615, S. pyogenes HAV#004, ATCC 19615): 0.125 µg/mL (≈ 0.311 µM)
- MIC ([7]; ATCC29212, E. faecalis HAV#005, ATCC 29212): 32 µg/mL (≈ 79.7 µM)
- MIC [17]: 64 µg/mL (≈ 159 µM)
- MIC [18]: 2 µg/mL (≈ 4.98 µM)
- MIC [19]: 0.25 µg/mL (≈ 0.623 µM)
- MIC [20]: 64 µg/mL (≈ 159 µM)
- MIC [21]: 0.5 µg/mL (≈ 1.25 µM)
- MIC [22]: 64 µg/mL (≈ 159 µM)
- MIC ([23]; Enterococcus faecalis, VRE, E. faecalis HAV#251, Clinical VRE): > 64 µg/mL
- MIC ([23]; Staphylococcus aureus, MRSA, S. aureus HAV#0107, MRSA Col(Colindale, England)): > 64 µg/mL
- MIC ([23]; Staphylococcus aureus, VISA, S. aureus HAV#203, Clinical (VISA)): 64 µg/mL (≈ 159 µM)
- MIC ([12]; E. coli HAV#038, ΔTolC): 16 µg/mL (≈ 39.9 µM)

SMILES: C=C[C@@H]1CCO[C@@H]2[C@H](CN[C@@H]2C(=O)N[C@H]([C@H](C)Cl)[C@H]2OC(SC)[C@H](O)[C@H](O)C2O)C1 (stereo partly drawn) [FSA-10-10-013]
- MIC [1, 24]: 0.25 µg/mL (≈ 0.538 µM)
- MIC ([2]; E. coli LptD): 4 µg/mL (≈ 8.6 µM)
- MIC ([3]; K. oxytoca Clinical): 128 µg/mL (≈ 275 µM)
- MIC [4, 25]: 0.25 µg/mL (≈ 0.538 µM)
- MIC ([5]; E. coli ATCC 25922): 64 µg/mL (≈ 138 µM)
- MIC [6, 26]: 0.25 µg/mL (≈ 0.538 µM)
- MIC [7, 27]: 2 µg/mL (≈ 4.3 µM)
- MIC [8]: > 128 µg/mL
- MIC [9]: 64 µg/mL (≈ 138 µM)
- MIC [10]: 32 µg/mL (≈ 68.8 µM)
- MIC [11]: > 128 µg/mL
- MIC ([12]; E. coli ΔTolC): 2 µg/mL (≈ 4.3 µM)
